# From ChEMBL document CHEMBL5291721, “A preclinical secondary pharmacology resource illuminates target-adverse drug reaction associations of marketed drugs” (Nat Commun, 2023)
# Columns and labels:
# [1] = molecular target: T1, Gastrin/cholecystokinin type B receptor (Homo sapiens, UniProt P32239)
# T1 sequence (P32239 whole entry): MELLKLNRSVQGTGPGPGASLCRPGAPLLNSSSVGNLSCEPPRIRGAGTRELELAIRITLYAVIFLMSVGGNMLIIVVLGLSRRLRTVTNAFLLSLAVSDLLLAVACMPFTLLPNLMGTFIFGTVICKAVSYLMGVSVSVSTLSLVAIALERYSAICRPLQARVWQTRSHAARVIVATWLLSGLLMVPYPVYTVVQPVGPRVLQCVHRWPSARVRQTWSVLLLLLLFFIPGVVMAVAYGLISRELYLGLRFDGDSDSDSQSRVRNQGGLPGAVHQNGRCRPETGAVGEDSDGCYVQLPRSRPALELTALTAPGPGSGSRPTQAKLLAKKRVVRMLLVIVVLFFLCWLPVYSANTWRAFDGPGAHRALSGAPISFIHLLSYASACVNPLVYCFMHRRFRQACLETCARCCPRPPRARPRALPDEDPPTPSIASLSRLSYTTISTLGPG
# Progesterone receptor [2] = molecular target: T2, Progesterone receptor (Homo sapiens, UniProt P06401); assay type: functional
# T2 sequence (P06401 whole entry): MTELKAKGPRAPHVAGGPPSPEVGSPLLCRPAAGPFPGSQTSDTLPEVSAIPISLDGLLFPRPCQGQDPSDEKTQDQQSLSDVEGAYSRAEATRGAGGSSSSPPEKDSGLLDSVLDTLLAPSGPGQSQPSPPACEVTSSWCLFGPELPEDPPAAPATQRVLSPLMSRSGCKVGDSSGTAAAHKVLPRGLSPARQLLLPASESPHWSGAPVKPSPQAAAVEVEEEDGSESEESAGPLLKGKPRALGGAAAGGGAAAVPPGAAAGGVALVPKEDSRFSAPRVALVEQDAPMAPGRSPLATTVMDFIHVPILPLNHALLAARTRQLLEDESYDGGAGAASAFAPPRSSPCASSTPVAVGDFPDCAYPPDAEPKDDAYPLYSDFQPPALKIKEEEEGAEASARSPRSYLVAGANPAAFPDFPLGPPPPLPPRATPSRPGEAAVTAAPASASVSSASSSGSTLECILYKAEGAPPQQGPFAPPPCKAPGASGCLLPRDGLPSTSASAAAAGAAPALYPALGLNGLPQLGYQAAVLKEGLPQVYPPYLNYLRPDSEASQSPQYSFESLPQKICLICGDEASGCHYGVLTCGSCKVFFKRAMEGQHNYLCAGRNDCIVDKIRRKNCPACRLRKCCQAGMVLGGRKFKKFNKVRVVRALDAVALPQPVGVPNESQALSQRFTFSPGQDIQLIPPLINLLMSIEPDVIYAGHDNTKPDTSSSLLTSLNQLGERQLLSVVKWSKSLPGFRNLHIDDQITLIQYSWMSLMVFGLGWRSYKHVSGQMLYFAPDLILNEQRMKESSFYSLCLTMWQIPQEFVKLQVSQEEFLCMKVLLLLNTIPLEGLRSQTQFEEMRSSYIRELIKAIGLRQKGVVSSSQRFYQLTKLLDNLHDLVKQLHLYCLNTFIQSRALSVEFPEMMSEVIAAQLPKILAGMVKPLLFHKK
# Progesterone receptor [3] = molecular target: T2, Progesterone receptor; assay type: functional; remark: listed apart in the source
# Melanocortin receptor 4 = Melanocortin receptor 4 (Homo sapiens, UniProt P32245)
# Mu-type opioid receptor = Mu-type opioid receptor (Homo sapiens, UniProt P35372)
# [4] = molecular target: T3, 5-hydroxytryptamine receptor 1A (Homo sapiens, UniProt P08908); assay type: functional, cell-based
# T3 sequence (P08908 whole entry): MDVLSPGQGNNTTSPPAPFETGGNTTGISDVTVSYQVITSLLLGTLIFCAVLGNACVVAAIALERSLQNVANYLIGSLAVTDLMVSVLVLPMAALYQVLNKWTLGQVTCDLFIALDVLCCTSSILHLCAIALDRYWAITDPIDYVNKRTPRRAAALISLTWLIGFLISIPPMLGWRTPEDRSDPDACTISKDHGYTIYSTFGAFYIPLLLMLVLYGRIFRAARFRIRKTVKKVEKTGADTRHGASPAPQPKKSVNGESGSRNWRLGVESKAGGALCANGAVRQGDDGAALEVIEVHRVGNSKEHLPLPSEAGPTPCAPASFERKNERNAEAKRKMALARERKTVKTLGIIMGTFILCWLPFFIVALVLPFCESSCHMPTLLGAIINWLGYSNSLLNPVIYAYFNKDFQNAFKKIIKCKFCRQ
# [5] = molecular target: T3, 5-hydroxytryptamine receptor 1A
# [6] = molecular target: Sodium-dependent dopamine transporter (Homo sapiens, UniProt Q01959)
# D(3) dopamine receptor = D(3) dopamine receptor (Homo sapiens, UniProt P35462)
# [7] = molecular target: Prostaglandin G/H synthase 1 (Homo sapiens, UniProt P23219); assay type: functional
# [8] = molecular target: Sodium-dependent noradrenaline transporter (Homo sapiens, UniProt P23975)
# Acetylcholinesterase = Acetylcholinesterase (Homo sapiens, UniProt P22303); assay type: functional
# [9] = molecular target: Beta-2 adrenergic receptor (Homo sapiens, UniProt P07550)
# Histamine H2 receptor = Histamine H2 receptor (Homo sapiens, UniProt P25021); assay type: functional, cell-based
# [10] = molecular target: Sodium-dependent serotonin transporter (Homo sapiens, UniProt P31645)
# Further: assay procedure not described here.
# Sequence of D(3) dopamine receptor (P35462 whole entry): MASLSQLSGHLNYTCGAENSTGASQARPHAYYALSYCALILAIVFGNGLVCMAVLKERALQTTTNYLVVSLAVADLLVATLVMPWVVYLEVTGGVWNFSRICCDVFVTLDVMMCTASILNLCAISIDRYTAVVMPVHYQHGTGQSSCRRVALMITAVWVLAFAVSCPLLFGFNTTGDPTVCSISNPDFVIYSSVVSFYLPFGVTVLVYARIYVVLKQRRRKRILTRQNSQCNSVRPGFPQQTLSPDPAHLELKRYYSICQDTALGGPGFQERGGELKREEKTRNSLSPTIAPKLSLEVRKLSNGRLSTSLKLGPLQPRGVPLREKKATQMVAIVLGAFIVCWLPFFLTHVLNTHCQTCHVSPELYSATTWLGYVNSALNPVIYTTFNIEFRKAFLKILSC
# Sequence of Prostaglandin G/H synthase 1 (P23219 whole entry): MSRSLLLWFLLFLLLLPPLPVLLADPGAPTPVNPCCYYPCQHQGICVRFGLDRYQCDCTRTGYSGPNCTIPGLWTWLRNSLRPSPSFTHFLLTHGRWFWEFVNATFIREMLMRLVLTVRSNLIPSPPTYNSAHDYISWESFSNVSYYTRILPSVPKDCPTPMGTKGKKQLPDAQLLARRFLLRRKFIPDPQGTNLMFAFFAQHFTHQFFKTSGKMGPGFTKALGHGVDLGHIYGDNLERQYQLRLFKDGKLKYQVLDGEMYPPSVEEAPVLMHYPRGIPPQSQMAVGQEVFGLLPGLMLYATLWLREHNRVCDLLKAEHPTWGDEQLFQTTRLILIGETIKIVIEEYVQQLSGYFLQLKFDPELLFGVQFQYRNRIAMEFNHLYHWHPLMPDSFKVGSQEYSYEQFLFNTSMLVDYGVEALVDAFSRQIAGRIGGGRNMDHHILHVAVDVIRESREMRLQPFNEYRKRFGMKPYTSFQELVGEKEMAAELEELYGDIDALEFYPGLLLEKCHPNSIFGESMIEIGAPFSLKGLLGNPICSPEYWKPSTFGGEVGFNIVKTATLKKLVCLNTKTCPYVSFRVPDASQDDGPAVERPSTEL
# Sequence of Mu-type opioid receptor (P35372 whole entry): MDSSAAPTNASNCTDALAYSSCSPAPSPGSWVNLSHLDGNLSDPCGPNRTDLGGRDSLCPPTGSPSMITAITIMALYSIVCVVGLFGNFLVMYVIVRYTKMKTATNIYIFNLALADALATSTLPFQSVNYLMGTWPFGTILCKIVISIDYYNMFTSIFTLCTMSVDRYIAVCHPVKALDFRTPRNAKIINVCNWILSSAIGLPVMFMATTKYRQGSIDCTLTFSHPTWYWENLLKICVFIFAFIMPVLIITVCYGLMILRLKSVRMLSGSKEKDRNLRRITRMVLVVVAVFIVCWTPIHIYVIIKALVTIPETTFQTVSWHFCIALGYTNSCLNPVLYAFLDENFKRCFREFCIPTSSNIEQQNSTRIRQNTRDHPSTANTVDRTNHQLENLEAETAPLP
# Sequence of Sodium-dependent dopamine transporter (Q01959 whole entry): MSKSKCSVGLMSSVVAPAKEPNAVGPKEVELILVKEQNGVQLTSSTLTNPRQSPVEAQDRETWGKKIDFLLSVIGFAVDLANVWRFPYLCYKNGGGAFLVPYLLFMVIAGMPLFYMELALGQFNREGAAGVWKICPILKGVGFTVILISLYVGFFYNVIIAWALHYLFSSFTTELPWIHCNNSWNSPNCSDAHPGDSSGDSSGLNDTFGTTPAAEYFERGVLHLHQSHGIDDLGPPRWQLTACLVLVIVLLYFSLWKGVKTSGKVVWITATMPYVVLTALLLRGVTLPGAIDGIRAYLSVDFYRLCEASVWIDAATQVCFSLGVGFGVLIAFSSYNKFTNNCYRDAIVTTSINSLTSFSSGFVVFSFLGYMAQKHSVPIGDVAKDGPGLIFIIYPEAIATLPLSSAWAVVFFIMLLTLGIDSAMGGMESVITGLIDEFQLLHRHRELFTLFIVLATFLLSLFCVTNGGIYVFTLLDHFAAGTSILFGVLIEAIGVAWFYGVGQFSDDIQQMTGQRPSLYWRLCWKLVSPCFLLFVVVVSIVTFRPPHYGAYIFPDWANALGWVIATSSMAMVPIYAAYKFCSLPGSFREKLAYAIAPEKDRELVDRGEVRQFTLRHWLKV
# Sequence of Beta-2 adrenergic receptor (P07550 whole entry): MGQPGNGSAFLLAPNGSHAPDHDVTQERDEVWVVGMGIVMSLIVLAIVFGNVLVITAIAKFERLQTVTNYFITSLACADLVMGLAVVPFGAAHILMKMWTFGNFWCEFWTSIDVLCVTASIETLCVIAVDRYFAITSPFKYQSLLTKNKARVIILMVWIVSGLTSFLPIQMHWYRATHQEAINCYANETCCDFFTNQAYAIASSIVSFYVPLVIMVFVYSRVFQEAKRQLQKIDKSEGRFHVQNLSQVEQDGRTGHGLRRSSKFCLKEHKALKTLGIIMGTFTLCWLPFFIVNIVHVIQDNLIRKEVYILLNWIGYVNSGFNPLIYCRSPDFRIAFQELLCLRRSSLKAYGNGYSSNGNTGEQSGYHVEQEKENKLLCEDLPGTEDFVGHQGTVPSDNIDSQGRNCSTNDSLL
# Sequence of Sodium-dependent noradrenaline transporter (P23975 whole entry): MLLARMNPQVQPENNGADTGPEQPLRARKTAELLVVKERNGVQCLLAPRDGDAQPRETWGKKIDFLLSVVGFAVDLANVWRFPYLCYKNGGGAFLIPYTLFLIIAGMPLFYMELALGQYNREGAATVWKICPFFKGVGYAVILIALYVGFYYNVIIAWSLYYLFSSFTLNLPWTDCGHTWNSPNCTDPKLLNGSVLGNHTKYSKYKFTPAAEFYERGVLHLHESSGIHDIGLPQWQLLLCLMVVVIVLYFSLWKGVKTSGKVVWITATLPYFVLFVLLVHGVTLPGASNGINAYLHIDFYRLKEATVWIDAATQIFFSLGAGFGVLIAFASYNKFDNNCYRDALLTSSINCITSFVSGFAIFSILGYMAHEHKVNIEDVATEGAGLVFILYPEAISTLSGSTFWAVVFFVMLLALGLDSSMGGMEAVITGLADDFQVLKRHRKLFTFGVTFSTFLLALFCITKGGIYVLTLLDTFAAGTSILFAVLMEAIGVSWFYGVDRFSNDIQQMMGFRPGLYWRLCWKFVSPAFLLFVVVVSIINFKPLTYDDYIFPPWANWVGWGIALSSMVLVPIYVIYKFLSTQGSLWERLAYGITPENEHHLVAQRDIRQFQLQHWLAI
# Sequence of Melanocortin receptor 4 (P32245 whole entry): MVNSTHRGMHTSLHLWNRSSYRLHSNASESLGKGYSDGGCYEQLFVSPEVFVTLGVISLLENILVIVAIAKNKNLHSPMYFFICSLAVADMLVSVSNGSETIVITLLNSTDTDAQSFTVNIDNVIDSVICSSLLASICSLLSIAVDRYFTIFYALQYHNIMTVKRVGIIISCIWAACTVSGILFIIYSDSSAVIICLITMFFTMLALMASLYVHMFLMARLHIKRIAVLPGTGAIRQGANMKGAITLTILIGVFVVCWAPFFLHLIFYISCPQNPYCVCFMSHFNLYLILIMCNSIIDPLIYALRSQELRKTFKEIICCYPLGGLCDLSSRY
# Sequence of Acetylcholinesterase (P22303 whole entry): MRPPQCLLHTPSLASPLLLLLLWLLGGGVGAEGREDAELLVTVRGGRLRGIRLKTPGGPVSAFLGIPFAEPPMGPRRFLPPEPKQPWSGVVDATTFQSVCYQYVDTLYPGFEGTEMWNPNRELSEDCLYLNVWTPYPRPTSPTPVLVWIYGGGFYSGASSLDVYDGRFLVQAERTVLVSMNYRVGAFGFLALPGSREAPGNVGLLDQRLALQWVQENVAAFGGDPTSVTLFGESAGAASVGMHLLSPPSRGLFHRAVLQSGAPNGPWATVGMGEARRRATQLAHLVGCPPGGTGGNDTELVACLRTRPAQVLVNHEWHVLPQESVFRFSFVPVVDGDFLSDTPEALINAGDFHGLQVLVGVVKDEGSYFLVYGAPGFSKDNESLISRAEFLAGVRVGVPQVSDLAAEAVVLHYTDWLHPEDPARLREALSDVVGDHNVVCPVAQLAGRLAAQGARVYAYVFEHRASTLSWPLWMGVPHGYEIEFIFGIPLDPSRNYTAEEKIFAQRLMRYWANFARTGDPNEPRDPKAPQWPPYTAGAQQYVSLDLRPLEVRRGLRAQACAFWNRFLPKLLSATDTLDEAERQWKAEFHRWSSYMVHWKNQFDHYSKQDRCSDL
# Sequence of Histamine H2 receptor (P25021 whole entry): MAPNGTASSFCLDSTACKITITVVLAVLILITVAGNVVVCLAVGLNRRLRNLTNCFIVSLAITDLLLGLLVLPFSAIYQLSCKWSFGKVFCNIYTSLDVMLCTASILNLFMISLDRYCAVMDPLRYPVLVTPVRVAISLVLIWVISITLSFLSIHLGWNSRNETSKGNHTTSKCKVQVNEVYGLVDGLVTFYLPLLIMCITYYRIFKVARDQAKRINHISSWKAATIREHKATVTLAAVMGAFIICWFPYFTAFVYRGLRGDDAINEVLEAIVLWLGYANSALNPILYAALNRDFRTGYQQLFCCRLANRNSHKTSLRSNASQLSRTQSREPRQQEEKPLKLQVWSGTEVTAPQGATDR
# Sequence of Sodium-dependent serotonin transporter (P31645 whole entry): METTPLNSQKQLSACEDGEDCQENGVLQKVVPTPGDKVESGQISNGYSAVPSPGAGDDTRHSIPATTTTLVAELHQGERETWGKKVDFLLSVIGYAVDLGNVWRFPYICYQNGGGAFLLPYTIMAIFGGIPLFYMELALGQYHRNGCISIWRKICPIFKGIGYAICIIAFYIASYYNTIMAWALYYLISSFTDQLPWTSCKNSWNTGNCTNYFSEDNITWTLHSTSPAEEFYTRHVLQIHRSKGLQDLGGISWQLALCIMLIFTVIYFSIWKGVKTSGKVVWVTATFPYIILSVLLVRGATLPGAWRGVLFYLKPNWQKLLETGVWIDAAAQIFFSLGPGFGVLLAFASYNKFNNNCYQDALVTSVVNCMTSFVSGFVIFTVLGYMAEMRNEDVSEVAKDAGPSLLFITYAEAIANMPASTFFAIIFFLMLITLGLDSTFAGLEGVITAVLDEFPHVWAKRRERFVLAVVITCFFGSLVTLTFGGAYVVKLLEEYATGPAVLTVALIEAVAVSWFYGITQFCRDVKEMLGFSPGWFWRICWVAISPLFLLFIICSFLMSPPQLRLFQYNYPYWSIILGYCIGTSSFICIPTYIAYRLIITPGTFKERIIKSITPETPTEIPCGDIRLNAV
SMILES,AC50 [1],AC50 (Progesterone receptor [2]),AC50 (Progesterone receptor [3]),AC50 (Melanocortin receptor 4),AC50 (Mu-type opioid receptor),AC50 [4],AC50 [5],AC50 [6],AC50 (D(3) dopamine receptor),AC50 [7],AC50 [8],AC50 (Acetylcholinesterase),AC50 [9],AC50 (Histamine H2 receptor),AC50 [10]
C[N+]1(C)CCC(OC(=O)C(O)(c2ccccc2)C2CCCC2)C1 (configuration not stated) [GLYCOPYRRONIUM BROMIDE],> 30 µM,> 10 µM,> 10 µM,> 30 µM,,,,,,,,,,,
C1CCC(C(CC2CCCCN2)C2CCCCC2)CC1 (configuration not stated) [PERHEXILINE],,> 30 µM,> 30 µM,,16 µM,> 3 µM,,,,,,,,,
CCC1=C(C)CN(C(=O)NCCc2ccc(S(=O)(=O)NC(=O)N[C@H]3CC[C@H](C)CC3)cc2)C1=O [GLIMEPIRIDE],,,,,,,> 30 µM,> 30 µM,> 30 µM,> 30 µM,> 30 µM,> 30 µM,,,
O=P1(NCCCl)OCCCN1CCCl (configuration not stated) [IFOSFAMIDE],> 30 µM,> 30 µM,> 30 µM,> 30 µM,,> 30 µM,,,,,,,> 30 µM,> 30 µM,
O=C(O[C@H]1C[C@H]2CC[C@@H](C1)[N+]21CCCC1)C(O)(c1ccccc1)c1ccccc1 [TROSPIUM],> 30 µM,> 30 µM,> 30 µM,> 30 µM,,> 30 µM,,,,,,,> 30 µM,> 30 µM,> 30 µM
C[N+](C)(C)CCO [CHOLINE],,,,,,,> 30 µM,> 30 µM,> 30 µM,> 30 µM,> 30 µM,> 30 µM,,,
CNC1Cc2ccccc2N(C)c2ccccc21 (configuration not stated) [METAPRAMINE],,> 30 µM,> 30 µM,,> 30 µM,> 30 µM,,,,,,,,,14 µM
CNC(=O)c1ccccc1Sc1ccc2c(/C=C/c3ccccn3)n[nH]c2c1 [AXITINIB],,> 30 µM,> 30 µM,,> 30 µM,> 30 µM,,,,,,,> 10 µM,,> 30 µM
COc1cc(NC(C)CCCN)c2ncccc2c1 (configuration not stated) [PRIMAQUINE],> 30 µM,20 µM,,,,,,,,3.95 µM,,,,,
CCc1oc2ccccc2c1C(=O)c1cc(I)c(O)c(I)c1 [BENZIODARONE],,,,,,,12.4 µM,9.96 µM,8.59 µM,8.33 µM,12.6 µM,> 30 µM,,,
CCCCN1C[C@H](O)[C@@H](O)[C@H](O)[C@H]1CO,> 30 µM,> 30 µM,> 30 µM,,,,,,,,,,> 30 µM,> 30 µM,> 30 µM
c1ccc([C@H]2CN3CCSC3=N2)cc1 [LEVAMISOLE],,> 30 µM,> 30 µM,,> 30 µM,> 30 µM,,,,,,,> 30 µM,> 30 µM,
COc1ccc(CC(C)(C)NC[C@H](O)c2cc(O)cc3c2OCC(=O)N3)cc1 [OLODATEROL],,> 30 µM,> 30 µM,,> 30 µM,29 µM,,,,,,,,,0.0608 µM
Cc1nc([N+](=O)[O-])cn1-c1ccc([N+](=O)[O-])cc1 [NITREFAZOLE],> 30 µM,> 30 µM,> 30 µM,,,,,,,,,,,> 30 µM,> 30 µM
